Results on eleven compounds are retold here after ChEMBL document CHEMBL1201862, “PubChem BioAssay data set” (2004).

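Assay format: 96-well plates, 48-hour exposure. The concentration for 50% growth inhibition is given as GI50.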 Activity calls are given as the source filed them. Cut-off read from the data, not from the text of the source: active = GI50 up to about 1.1 µM and inactive = higher. Peptide text beside a SMILES is read from it. * marks the point of attachment. Boc = CC(C)(C)OC(=O)* A value given as a limit tells only on which side of the number the result lay.

What all share (experiment): NCI tumour cell line growth inhibition, 48 h
Assay [1] relates to CCRF-CEM.
Assay [2] concerns A549.
Assay [3] has as its system UO-31.
Assay [4] concerns HL-60.
The subject of assay [5] is HOP-62.
The subject of assay [6] is HCT-15.
The test system of assay [7] is SW-620.
Assay [8] relates to DU-145.
For assay [9], the system named is Malme-3M.
Assay [10] concerns COLO 205.
In assay [11] the test system is SR.
For assay [12], the system named is SK-MEL-2.
Assay [13] has as its system A498.
Assay [14] has as its system SN12C.
For assay [15], the system named is IGROV-1.
In assay [16] the test system is MCF7.
Assay [17] concerns HCC 2998.
Assay [18] relates to UACC-62.
Assay [19] deals with SK-MEL-28.
The subject of assay [20] is NCI/ADR-RES.

Consider `CC(=O)OC1C(O)C(C)OC(OC2C(OC(=O)C3CCC4C(C3)OC3(CC(OC(=O)/C=C/c5ccccc5)C(C)CO3)C43CO3)OC(C)C(O)C2OC(C)=O)C1O` (stereo unspecified), for which the GI50 is 0.00351 µM (active) in assay [1]; 0.0557 µM (active) in assay [2]; 0.721 µM (active) in assay [3]; 0.00507 µM (active) in assay [4]; 0.00951 µM (active) in assay [5]; 0.718 µM in assay [6]. Also, the GI50 in assay [7] is 0.0111 µM (active); in assay [8], 0.0103 µM (active); in [9] it was 0.00507 µM (active); in assay [10], 0.0078 µM (active); in assay [11], 0.00258 µM (active); in assay [12], 0.00561 µM (active). Besides, the GI50 in assay [13] is 0.0526 µM (active); in [14] it was 0.0203 µM (active); in [15], 0.0134 µM (active); in [16], 0.00429 µM (active); in [17] it was 0.00358 µM (active); in assay [18], 0.0108 µM (active). In [19], the GI50 is 0.008 µM (active).

For `CCOc1cc(CC[N+](C)(C)C)c2c(ccc3ccc(OC)c(OC)c32)c1OC`, the GI50 in assay [2], in assay [3], in assay [7], in assay [20], in assay [8] and in assay [9] was > 100 µM (inactive) in each case. In addition, the GI50 in [10], in assay [11], in assay [14], in assay [15], in [17] and in [18] was > 100 µM (inactive) in each case. In addition, the GI50 in assay [19] is > 100 µM (inactive).

For the compound `CNC(=O)OC1/C(C)=C\C(C)C(O)C(OC)CC(C)CC2=C(OC)C(=O)C=C(C2=O)N(C)C(=O)/C(C)=C/C=C\C1OC` (stereo unspecified), the GI50 in [1] was 0.938 µM (active); in assay [2], 14.3 µM (inactive); in assay [3] it was 7.69 µM (inactive); in assay [5], 14.4 µM (inactive); in assay [6], 6.76 µM; in assay [7] it was 0.35 µM (active). For the same compound, the GI50 in assay [20] is 20 µM (inactive); in assay [8], 9.64 µM (inactive); in assay [9], 5.69 µM (inactive); in [10] it was 0.424 µM (active); in assay [12], 8.85 µM (inactive); in assay [13] it was 18.5 µM (inactive). For the same compound, the GI50 in [14] is 3.62 µM (inactive); in assay [15], 10.8 µM (inactive); in assay [17] it was 4.39 µM (inactive); in assay [18], 3.84 µM (inactive); in assay [19], 2.88 µM (inactive).

On to `O=C(NC1=C(Cl)C(=O)c2ccccc2C1=O)C(=O)C(C(=O)c1ccc2ccccc2c1)C1OC(=O)c2ccccc21` (stereo unspecified), for which the GI50 in assay [1] is 2.87 µM (inactive); in assay [2] it was 4.72 µM (inactive); in assay [3], 13.2 µM (inactive); in assay [4], 2.49 µM (inactive); in assay [5] it was 5.82 µM (inactive); in assay [6], 3.77 µM. For the same compound, the GI50 is 5.13 µM (inactive) in assay [7]; 10.6 µM (inactive) in assay [8]; 1.7 µM (inactive) in [9]; 7.4 µM (inactive) in assay [10]; 3.31 µM (inactive) in assay [11]; 4.94 µM (inactive) in [12]. Moreover, the GI50 is 4.68 µM (inactive) in [13]; 4.36 µM (inactive) in assay [14]; 7.73 µM (inactive) in [15]; 2.74 µM (inactive) in assay [16]; 9.55 µM (inactive) in assay [17]; 1.73 µM (inactive) in assay [18]. Moreover, the GI50 in [19] was 4.59 µM (inactive).

In the case of `NC(=O)/N=C1\NCCC(=O)N1CCc1c[nH]c2ccccc12`, the GI50 in assay [1] was 14.4 µM (inactive); in assay [2], 18.9 µM (inactive); in assay [3] it was 15.9 µM (inactive); in assay [4] it was 19.2 µM (inactive); in assay [5], 19.4 µM (inactive); in assay [6] it was 20 µM. Further, the GI50 in assay [7] was 26.7 µM (inactive); in [20], 17.2 µM (inactive); in assay [8], 21 µM (inactive); in [9] it was 18.4 µM (inactive); in assay [10], 14.1 µM (inactive); in assay [11] it was 25.8 µM (inactive). The GI50 was 14.2 µM (inactive) in [12]; 17.3 µM (inactive) in assay [13]; 21.9 µM (inactive) in assay [14]; 21.2 µM (inactive) in assay [15]; 19.4 µM (inactive) in assay [17]; 18.2 µM (inactive) in assay [18]. Besides, in assay [19], the GI50 was 20.9 µM (inactive).

As to `O=C(c1ccccn1)c1nnn2ccccc12`, the GI50 in [1] was > 100 µM (inactive); in [2] it was > 100 µM (inactive); in assay [4], > 100 µM (inactive); in [5], > 100 µM (inactive); in [6], greater than 100 µM; in [7] it was > 100 µM (inactive). The GI50 in assay [8], in assay [9], in assay [10], in assay [11], in [12] and in assay [13] was > 100 µM (inactive) each time. The GI50 in assay [14], in [15], in assay [16], in assay [17], in [18] and in assay [19] was > 100 µM (inactive) throughout.

With `Clc1ccc(OCc2nnc3sc(-c4ccc(-c5ccc(Cl)cc5Cl)o4)nn23)cc1`, the GI50 in assay [1] was > 100 µM (inactive); in assay [2], > 100 µM (inactive); in [3], > 100 µM (inactive); in [4] it was > 100 µM (inactive); in [5] it was > 100 µM (inactive); in assay [6] it was greater than 100 µM. Besides, the GI50 in assay [7], in assay [20], in [8], in assay [9], in assay [10] and in [11] was > 100 µM (inactive) in each case. The GI50 in assay [12] was 50.6 µM (inactive); in assay [13], > 100 µM (inactive); in [14] it was > 100 µM (inactive); in assay [15] it was > 100 µM (inactive); in [19] it was > 100 µM (inactive).

As to `NC1=NC(=O)C2(NN1)c1ccccc1-c1ccccc12`, the GI50 is > 10 µM (inactive) in assay [1]; > 10 µM (inactive) in [2]; > 10 µM (inactive) in assay [3]; 8.99 µM (inactive) in assay [4]; > 10 µM (inactive) in [5]; greater than 10 µM in assay [6]. The GI50 was > 10 µM (inactive) in assay [7]; 7.41 µM (inactive) in assay [20]; > 10 µM (inactive) in [9]; > 10 µM (inactive) in assay [10]; > 10 µM (inactive) in assay [11]; > 10 µM (inactive) in assay [12]. Moreover, the GI50 in [13] is 3.94 µM (inactive); in assay [14] it was > 10 µM (inactive); in assay [15] it was > 10 µM (inactive); in assay [16] it was 3.26 µM (inactive); in assay [17], > 10 µM (inactive); in assay [19], > 10 µM (inactive).

Take `Cn1c2ccccc2c(=O)c2cccc(C(=O)NC(CCCNC(=N)N)C(=O)O)c21` (stereo unspecified): the GI50 in assay [2] is > 100 µM (inactive); in assay [3] it was > 100 µM (inactive); in assay [5], > 100 µM (inactive); in [6], greater than 100 µM; in assay [7], > 100 µM (inactive); in assay [20], 26.1 µM (inactive). In addition, the GI50 in assay [8] is > 100 µM (inactive); in assay [9] it was > 100 µM (inactive); in assay [10], > 100 µM (inactive); in assay [12] it was > 100 µM (inactive); in assay [14], > 100 µM (inactive); in [15] it was 30.1 µM (inactive). Besides, the GI50 in [16], in assay [17], in [18] and in assay [19] was > 100 µM (inactive) throughout.

For the compound `Nc1ccc(S(=O)(=O)NCCS(=O)(=O)O)cc1`, the GI50 in assay [1] is > 100 µM (inactive); in assay [2], > 100 µM (inactive); in assay [3], > 100 µM (inactive); in [4], > 100 µM (inactive); in assay [5], > 100 µM (inactive); in assay [6], greater than 100 µM. Moreover, the GI50 in assay [7], in [20], in assay [8], in assay [9], in assay [11] and in [12] was > 100 µM (inactive) each time. In addition, the GI50 in assay [13], in assay [14], in assay [15], in assay [18] and in assay [19] was > 100 µM (inactive) throughout.

As to `CCOCC(NC(=O)C(CC(C)C)NC(=O)OC(C)(C)C)C(N)=O` (stereo not drawn) (Boc-Leu-Ser(Et)-NH2; configuration not given here), the GI50 is 41 µM (inactive) in assay [1]; > 100 µM (inactive) in assay [2]; > 100 µM (inactive) in assay [3]; > 100 µM (inactive) in assay [4]; > 100 µM (inactive) in [5]; greater than 100 µM in assay [6]. In addition, the GI50 in [7] is 1.59 µM (inactive); in assay [20], > 100 µM (inactive); in [8], > 100 µM (inactive); in assay [9], > 100 µM (inactive); in [10], > 100 µM (inactive); in [12], > 100 µM (inactive). Moreover, the GI50 in assay [13] was > 100 µM (inactive); in assay [14], > 100 µM (inactive); in assay [15], > 100 µM (inactive); in [16], > 100 µM (inactive); in assay [18], > 100 µM (inactive); in assay [19] it was 1.31 µM (inactive).
